In ChEMBL document CHEMBL5727173, “Phenyl-(aza)cycloalkyl carboxylic acid GPR120 modulators” (2019):

Target: T1, Free fatty acid receptor 4 (Homo sapiens, UniProt Q5NUL3)
T1 sequence (Q5NUL3 whole entry): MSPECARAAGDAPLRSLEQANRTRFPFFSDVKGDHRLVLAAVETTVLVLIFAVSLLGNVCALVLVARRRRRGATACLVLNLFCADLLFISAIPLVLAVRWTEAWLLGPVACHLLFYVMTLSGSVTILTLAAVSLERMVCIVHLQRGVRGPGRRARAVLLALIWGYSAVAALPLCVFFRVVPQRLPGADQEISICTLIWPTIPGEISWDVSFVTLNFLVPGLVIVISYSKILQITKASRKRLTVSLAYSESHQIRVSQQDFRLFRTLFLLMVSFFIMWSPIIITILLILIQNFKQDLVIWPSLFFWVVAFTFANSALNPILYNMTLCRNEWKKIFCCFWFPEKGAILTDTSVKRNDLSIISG
Assay: GPR120 pERK AlphaScreen SureFire Assay: The human and mouse GPR120-mediated intracellular phosphorylated ERK assays were also established using CHO-K1 cells stably transfected with the short form of human or mouse GPR120 receptor. Cells were cultured in growth medium consisting of F-12 media (Invitrogen Cat. #11765) with 5% Charcoal/Dextran FBS (Invitrogen Cat. #12676-029) and 500 μg/mL GENETICIN® (Life Technologies Cat. #10131-027). Cells were cryo preserved at a concentration of 3×10^6 cells/mL, in 70% F-12, 20% Charcoal/Dextran FBS and 10% DMSO, and frozen in liquid nitrogen at a low passage number.For the pERK assay, 3×10^6 cells/mL cryopreserved human and mouse cells were thawed rapidly in a 37° C. water bath and added to a T-225 flask containing 50 mL growth medium. The flasks were placed in a tissue culture incubator overnight (37° C., 5% CO2). The next day, cells were harvested with trypsin (Gibco Cat. #25300-054), resuspended in serum-containing growth medium and counted using a Cellometer and volume adjusted to a concentration of 0.5×10^6 cells/mL. Cells were plated into 384-well clear bottom tissue culture plates (BD Cat. #353962) at 50 μL/well, for a density of 25,000 cells/well using a MULTIDROP® and incubated for 16-18 hours (overnight) at 37° C. with 5% CO2. The next day, cells were washed once with 50 μL of PBS without Ca++/Mg++ (Gibco Cat. #14190-036) and serum starved in 25 μL of F-12 media without any serum or antibiotics for 2 hours at 37° C.
Format: cell-based

SMILES | EC50
O=C(O)CCCCc1ccc(N2CCCCC(Oc3ccc(F)cc3)C2)cc1 (stereo not given) | 3550 nM
O=C(O)CCCCc1ccc(N2CCCC(Oc3ccccc3)C2)cc1 (stereo not given) | 420 nM
O=C(O)COCCc1ccc(N2CCCC(Oc3ccccc3)C2)cc1 (stereo not given) | 2420 nM
O=C(O)CCCCc1ccc(C2CCCC(Nc3ccccc3)C2)cc1 (stereo not given) | 3030 nM
O=C(O)CCCCc1ccc(N2CCC[C@@H](Oc3ccccc3)C2)cc1 | 780 nM
